Data on 22 molecules can be found in patent publication US20180099931A1 (AbbVie S.à.r.l., priority 2016, published 2018).

Like-named read-outs stand apart in the source and are kept apart here. Some results are limits rather than exact numbers.

For the experiment, the target named is T1, F508delCFTR (Homo sapiens, UniProt P13569, DEL508-508).
T1 construct: expressed in transfected cells; host or cells: CFBE41o- human lung-derived epithelial cells (CFBE4lo-F508delCFTR-HRP), doxycycline-inducible
Kind of experiment: Cell Surface Expression-Horse Radish Peroxidase (CSE-HRP) Assay.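 As to Maximum % activity (with co-corrector): co-corrector and positive control are both the same reference corrector at 2 µM.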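 As to Maximum % activity (without co-corrector): percent of the 2 µM on-plate positive control corrector response above DMSO.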 Particulars: for Maximum % activity (with co-corrector): with co-corrector (2 μM); for Maximum % activity (with co-corrector) / Emax: maximum at any tested concentration, normalized to on-plate positive control; for Emax: without co-corrector, read-out: Maximum % activity (without co-corrector). The class given is cell-based. As to the method: Cell Surface Expression-Horse Radish Peroxidase (CSE-HRP) Assay
The development was achieved by expressing the F508delCFTR mutation along with a horseradish peroxidase (HRP) in the fourth exofacial loop, and then measuring the HRP activity using luminescence readout from these cells, CFBE4lo-F508delCFTR-HRP, that were incubated overnight with the test corrector compounds, either without or with the co-corrector. […] The test compounds were then added either without or with a co-corrector at the required concentrations and further incubated for 18-24 hours at 33° C. The highest concentration tested was 20 μM with an 8-point concentration response curve using a 3-fold dilution in both the test compound without or with the co-corrector. Three replicate plates were run to determine one EC50. All plates contained negative controls (dimethyl sulfoxide, DMSO) and positive control (2 μM of 3-[(2R,4R)-4-({[1-(2,2-difluoro-1,3-benzodioxol-5-yl)cyclopropyl]carbonyl}amino)-7-methoxy-3,4-dihydro-2H-chromen-2-yl]benzoic acid) as well as on-plate concentration response of the positive control. […] The raw counts from the experiment were analyzed using Accelrys® Assay Explorer v3.3.
1−[3*SDPositive Control+3*SDNegative Control/Absolute(MeanPositive Control−MeanNegative Control)]
wherein “SD” is standard deviation.
The % activity measured at each of the 8 test concentrations of the test compound added either without or with a co-corrector (2 μM of 3-[(2R,4R)-4-({[1-(2,2-difluoro-1,3-benzodioxol-5-yl)cyclopropyl]carbonyl}amino)-7-methoxy-3,4-dihydro-2H-chromen-2-yl]benzoic acid) was normalized to the on-plate positive control using the following formulae:
% activity(Test compound without co-corrector)=[(test compound without co-corrector response−DMSO response)/(positive control response−DMSO response)]*100
% activity(Test compound with co-corrector)=[(test compound with co-corrector response−DMSO response)/(positive control response−DMSO response)]*100
The maximum % activity achieved for the test compound either without or with a co-corrector at any tested concentration is presented in Table 4 along with the respective EC50's calculated using the following general sigmoidal curve with variable Hill slope equation (described as Model 42 in the Accelrys® Assay Explorer v3.3 software):
General sigmoidal curve with concentration, response, top, bottom, EC50 and Hill slope. This model describes a sigmoidal curve with an adjustable baseline, a. The equation can be used to fit curves where response is either increasing or decreasing with respect to the independent variable, “x”.
“x” is a concentration of drug under test. “y” is the response. “a” is the maximum response, and “d” is the minimum response “c” is the inflection point (EC50) for the curve. That is, “y” is halfway between the lower and upper asymptotes when x=c. “b” is the slope-factor or Hill coefficient. The sign of b is positive when the response increases with increasing dose and is negative when the response decreases with increasing dose (inhibition).

Setting [1] is: test compound without co-corrector, read-out: EC50 (without co-corrector).
Where [2] appears, read: with co-corrector (2 μM of 3-[(2R,4R)-4-({[1-(2,2-difluoro-1,3-benzodioxol-5-yl)cyclopropyl]carbonyl}amino)-7-methoxy-3,4-dihydro-2H-chromen-2-yl]benzoic acid), read-out: EC50 (with co-corrector).

T1 sequence (P13569 with tags, fused parts or gaps DEL508-508): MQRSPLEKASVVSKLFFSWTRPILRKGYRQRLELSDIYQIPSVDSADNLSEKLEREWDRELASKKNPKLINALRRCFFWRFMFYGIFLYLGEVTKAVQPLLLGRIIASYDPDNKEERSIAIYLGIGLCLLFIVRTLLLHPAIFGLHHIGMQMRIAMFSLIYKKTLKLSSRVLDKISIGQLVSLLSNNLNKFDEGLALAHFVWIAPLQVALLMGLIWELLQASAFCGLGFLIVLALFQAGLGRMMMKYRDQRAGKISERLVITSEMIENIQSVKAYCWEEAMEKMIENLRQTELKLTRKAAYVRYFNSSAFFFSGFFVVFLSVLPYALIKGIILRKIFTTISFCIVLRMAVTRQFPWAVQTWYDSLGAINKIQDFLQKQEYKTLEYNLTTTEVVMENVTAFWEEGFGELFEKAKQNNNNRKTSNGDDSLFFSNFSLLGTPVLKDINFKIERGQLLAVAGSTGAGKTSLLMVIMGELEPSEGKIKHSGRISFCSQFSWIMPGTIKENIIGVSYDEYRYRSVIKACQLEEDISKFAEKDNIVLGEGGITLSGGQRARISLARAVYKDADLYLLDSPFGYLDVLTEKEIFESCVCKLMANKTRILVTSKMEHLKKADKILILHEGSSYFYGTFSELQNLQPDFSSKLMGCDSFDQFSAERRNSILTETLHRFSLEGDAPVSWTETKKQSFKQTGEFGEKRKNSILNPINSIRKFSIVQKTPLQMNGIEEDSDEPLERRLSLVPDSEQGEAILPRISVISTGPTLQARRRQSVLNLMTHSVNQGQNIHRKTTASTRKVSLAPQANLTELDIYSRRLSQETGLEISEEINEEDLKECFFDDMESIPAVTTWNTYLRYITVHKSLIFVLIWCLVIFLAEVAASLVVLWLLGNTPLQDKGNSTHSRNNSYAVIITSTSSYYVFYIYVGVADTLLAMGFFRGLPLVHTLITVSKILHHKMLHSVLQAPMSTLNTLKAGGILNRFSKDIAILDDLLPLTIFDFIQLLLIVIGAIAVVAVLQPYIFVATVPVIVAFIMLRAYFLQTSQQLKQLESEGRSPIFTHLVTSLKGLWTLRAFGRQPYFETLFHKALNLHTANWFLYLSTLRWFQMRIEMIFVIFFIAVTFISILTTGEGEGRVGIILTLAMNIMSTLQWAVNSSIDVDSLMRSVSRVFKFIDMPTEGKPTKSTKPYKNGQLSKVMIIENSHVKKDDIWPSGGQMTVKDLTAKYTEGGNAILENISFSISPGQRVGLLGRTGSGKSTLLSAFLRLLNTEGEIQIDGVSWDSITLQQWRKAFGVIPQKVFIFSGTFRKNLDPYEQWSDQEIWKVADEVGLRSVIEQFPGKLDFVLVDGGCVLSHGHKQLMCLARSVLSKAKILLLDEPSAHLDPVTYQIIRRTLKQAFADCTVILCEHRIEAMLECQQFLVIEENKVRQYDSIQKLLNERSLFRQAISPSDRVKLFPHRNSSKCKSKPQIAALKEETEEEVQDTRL

For the molecule `COc1ccc(C(F)(F)F)cc1CN[C@@H]1[C@@H](C(C)(C)C)[C@H](C(=O)O)N(C(=O)C2CCCCC2)[C@@H]1c1ccccc1` (racemic) [Example I-6], the “Maximum % activity (with co-corrector)” value is listed as “+++ (≥350)” and the Emax was greater than 200%. Moreover, the half-maximal effective concentration (EC50) under setting [1] was in the range of 1000 to 10000 nM. The EC50 under setting [2] was in the range of 1000 to 10000 nM.
In the case of `Cc1cc(C(F)(F)F)cc(N[C@@H]2[C@@H](C3CC3)[C@H](C(=O)O)N(C(=O)C3CCCCC3)[C@@H]2c2ccccc2)n1` (racemic) [Example I-7], the “Maximum % activity (with co-corrector)” value was “++ (≥150 and <350)”; the Emax was less than 100%. In addition, under setting [1], the EC50 was 1000 to 10000 nM. For the same molecule, the EC50 under setting [2] is 1000 to 10000 nM.
For the molecule `COc1ccc(C(F)(F)F)cc1C(C)N[C@@H]1[C@@H](C(C)(C)C)[C@H](C(=O)O)N(C(=O)C2CCCCC2)[C@@H]1c1ccccc1` (mixture of isomers) [Example I-8], the “Maximum % activity (with co-corrector)” value is “++ (≥150 and <350)”; the Emax was less than 100%. For the same molecule, the EC50 under setting [1] is 1000 to 10000 nM. In addition, the EC50 under setting [2] lay within 1000 to 10000 nM.
Turning to `COc1cc(N[C@H]2[C@H](C(C)(C)C)[C@@H](C(=O)O)N(C(=O)C3CCCCC3)[C@H]2c2ccccc2)nc(OC)n1` (racemic) [Example I-9], the “Maximum % activity (with co-corrector)” value was “++ (≥150 and <350)”; the Emax was less than 100%. Also, the EC50 under setting [1] is greater than 10000 nM. The EC50 under setting [2] lay within 1000 to 10000 nM.
Turning to `COc1cc(C(F)(F)F)cc(N[C@@H]2[C@@H](C(C)(C)C)[C@H](C(=O)O)N(C(=O)OC(C)C)[C@@H]2c2ccccc2)n1` (racemic) [Example I-10], the “Maximum % activity (with co-corrector)” value is “+++ (≥350)” and the Emax is less than 100%. For the same molecule, the EC50 under setting [1] lay in the range of 1000 to 10000 nM. Also, the EC50 under setting [2] is 1000 to 10000 nM.
For the molecule `CC(C)(C)[C@@H]1[C@@H](NCc2ccccc2OC(F)F)[C@@H](c2ccccn2)N(C(=O)C2CCCCC2)[C@H]1C(=O)O` (racemic) [Example I-11], the “Maximum % activity (with co-corrector)” value was “++ (≥150 and <350)”; the Emax was less than 100%. Also, the EC50 under setting [1] is 1000 to 10000 nM. In addition, under setting [2], the EC50 was 1000 to 10000 nM.
For the molecule `COc1ccc(Cl)cc1CN[C@@H]1[C@@H](C(C)(C)C)[C@H](C(=O)O)N(C(=O)OC(C)C)[C@@H]1c1ccccc1` (racemic) [Example I-12], the “Maximum % activity (with co-corrector)” value was “+++ (≥350)” and the Emax is greater than 200%. Besides, under setting [1], the EC50 is 1000 to 10000 nM. Further, the EC50 under setting [2] was 1000 to 10000 nM.
Turning to `Cc1cc(C(F)(F)F)nc(N[C@@H]2[C@@H](C(C)(C)C)[C@H](C(=O)O)N(C(=O)OC(C)C)[C@@H]2c2ccccc2)n1` (racemic) [Example I-13], the “Maximum % activity (with co-corrector)” value is “++ (≥150 and <350)”; the Emax is less than 100%. Also, under setting [1], the 50% effective concentration (EC50) was 1000 to 10000 nM. Besides, the EC50 under setting [2] fell in the range of 1000 to 10000 nM.
Regarding `COc1ccc(OC(F)F)c(CN[C@@H]2[C@@H](C(C)(C)C)[C@H](C(=O)O)N(C(=O)C3CCCCC3)[C@@H]2c2ccccc2)c1` (racemic) [Example I-14], the “Maximum % activity (with co-corrector)” value was “++ (≥150 and <350)”; the Emax was less than 100%. In addition, under setting [1], the EC50 was greater than 10000 nM. Further, the EC50 under setting [2] lay within 1000 to 10000 nM.
As for `COc1ncc(C(F)(F)F)cc1N[C@@H]1[C@@H](C(C)(C)C)[C@H](C(=O)O)N(C(=O)C2CCCCC2)[C@@H]1c1ccccc1` (racemic) [Example I-15], the “Maximum % activity (with co-corrector)” value is on record as “+++ (≥350)” and the Emax is less than 100%. The EC50 under setting [1] is less than 1000 nM. For the same molecule, the EC50 under setting [2] was less than 1000 nM.
For `COc1cccc([C@@H]2[C@H](NCc3ccccc3OC(F)F)[C@@H](C(C)(C)C)[C@H](C(=O)O)N2C(=O)C2CCCCC2)n1` (racemic) [Example I-16], the “Maximum % activity (with co-corrector)” value was “+++ (≥350)” and the Emax is less than 100%. Also, under setting [1], the EC50 fell in the range of 1000 to 10000 nM. Moreover, the EC50 under setting [2] is 1000 to 10000 nM.
`Cc1cc(C(F)(F)F)cc(N[C@H]2[C@@H](c3ccccc3)N(C(=O)C3CCCCC3)[C@@H](C(=O)O)C23CC3)n1` (racemic) [Example I-17]: the “Maximum % activity (with co-corrector)” value was “++ (≥150 and <350)”; the Emax is less than 100%. Besides, the EC50 under setting [1] lay in the range of 1000 to 10000 nM. Further, under setting [2], the EC50 lay within 1000 to 10000 nM.
Turning to `COc1cccc([C@@H]2[C@H](NCc3ccccc3OC(F)F)[C@@H](C(C)(C)C)[C@H](C(=O)O)N2C(=O)C2CCCCO2)n1` (mixture of isomers) [Example I-18], the “Maximum % activity (with co-corrector)” value is “+++ (≥350)” and the Emax is less than 100%. In addition, the EC50 under setting [1] was 1000 to 10000 nM. In addition, under setting [2], the EC50 lay in the range of 1000 to 10000 nM.
As to `COc1cccc([C@@H]2[C@H](NCc3cc(C(F)(F)F)ccc3OC)[C@@H](C(C)(C)C)[C@H](C(=O)O)N2C(=O)C2CCCCC2)n1` (racemic) [Example I-19], the “Maximum % activity (with co-corrector)” value is given as “+++ (≥350)” and the Emax fell in the range of 100 to 200%. Further, the EC50 under setting [1] was 1000 to 10000 nM. Also, under setting [2], the EC50 lay within 1000 to 10000 nM.
Consider `CC(C)(C)[C@@H]1[C@@H](Nc2cccc(OC(F)F)n2)[C@@H](c2ccccc2)N(C(=O)C2CCCCC2)[C@H]1C(=O)O` (racemic) [Example I-21], for which the “Maximum % activity (with co-corrector)” value is “+++ (≥350)” and the Emax was less than 100%. The EC50 under setting [1] lay within 1000 to 10000 nM. The EC50 under setting [2] lay within 1000 to 10000 nM.
Turning to `COc1ccc(C(F)(F)F)cc1CN[C@@H]1[C@@H](C(C)(C)C)[C@H](C(=O)O)N(C(=O)C2CCCCC2)[C@@H]1c1ccccc1N(C)C` (racemic) [Example I-22], the “Maximum % activity (with co-corrector)” value was “+++ (≥350)” and the Emax was greater than 200%. Moreover, the EC50 under setting [1] fell in the range of 1000 to 10000 nM. For the same molecule, the EC50 under setting [2] was less than 1000 nM.
The corresponding values for `COc1cccc([C@@H]2[C@H](NCc3cc(C(F)(F)F)ccc3OC)[C@@H](C(C)(C)C)[C@H](C(=O)O)N2C(=O)C2CCCCO2)n1` (mixture of isomers) [Example I-23] are “+++ (≥350)”, less than 100%, 1000 to 10000 nM and 1000 to 10000 nM.
On to `COc1cc(C(F)(F)F)ccc1CN[C@@H]1[C@@H](C(C)(C)C)[C@H](C(=O)O)N(C(=O)C2C3COCC32)[C@@H]1c1ccccc1N(C)C` (mixture of isomers) [Example I-24], for which the “Maximum % activity (with co-corrector)” value is recorded as “+++ (≥350)” and the Emax is greater than 200%. Besides, the EC50 under setting [1] is 1000 to 10000 nM. Further, the EC50 under setting [2] fell in the range of 1000 to 10000 nM.
On to `COc1cc(C(F)(F)F)ccc1CN[C@@H]1[C@@H](C(C)(C)C)[C@H](C(=O)O)N(C(=O)C2CCCCO2)[C@@H]1c1ccccc1N(C)C` (mixture of isomers) [Example I-25], for which the “Maximum % activity (with co-corrector)” value is given as “+++ (≥350)” and the Emax was greater than 200%. In addition, under setting [1], the concentration giving a half-maximal response (EC50) was 1000 to 10000 nM. Moreover, the EC50 under setting [2] is less than 1000 nM.
Taken in the same sequence, the figures for `COC(=O)N1CCC[C@@H](C(=O)N2[C@H](c3ccccc3)[C@H](Nc3cc(C(F)(F)F)cc(C)n3)[C@@H](C(C)(C)C)[C@@H]2C(=O)O)C1` (racemic) [Example I-27] were “+++ (≥350)”, greater than 200%, 1000 to 10000 nM and 1000 to 10000 nM.
`COc1cc(C(F)(F)F)ccc1CN[C@@H]1[C@@H](C(C)(C)C)[C@H](C(=O)O)N(C(=O)OC(C)C)[C@@H]1c1cccnc1N(C)C` (racemic) [Example I-28]: the “Maximum % activity (with co-corrector)” value is on record as “+++ (≥350)” and the Emax was greater than 200%. Besides, the EC50 under setting [1] fell in the range of 1000 to 10000 nM. Also, the EC50 under setting [2] is 1000 to 10000 nM.
Take `COc1ccc(C(F)(F)F)cc1CN[C@@H]1[C@@H](C(C)(C)C)[C@H](C(=O)O)N(C(=O)OC(C)C)[C@@H]1c1cccnc1N(C)C` (racemic) [Example I-29]: the “Maximum % activity (with co-corrector)” value was “+++ (≥350)” and the Emax is greater than 200%. Further, the EC50 under setting [1] lay within 1000 to 10000 nM. Further, the EC50 under setting [2] lay in the range of 1000 to 10000 nM.

What is called EC50 is the concentration that produces a half-maximal response.
